Test results from patent publication US7811352B2, “Fertilizer compositions and methods of using” (priority 2005, dated 2010).
Marks after values point to notes of the source that are not given here.

Tests used:
Assay type in all cases: in vivo
Bermuda grass = assay: Phytotoxicity (% burn), Bermuda grass golf course fairways (Example 13)
Experimental: In this Example, the effect of a fertilizer comprising lysine on turfgrass growth was examined. The effects of lysine (HCl) and LIQUID LYSINE on a common type of golf course fairway quality turfgrass (Bermuda green) were compared with those of CoRoN® brand fertilizer.
Six fertilizer treatments comprising two concentrations of each fertilizer composition (Coron® (N—P—K, 14-2-14), LIQUID LYSINE (N—P—K, 10-2-1), and lysine (HCl) (N—P—K, 15-2-1)) were prepared and applied to 3 replications of Bermuda grass for use on golf course fairways. The lysine (HCl) was applied as a granular using a Scotts 2 foot drop spreader on a setting of 4.5. The solutions of LIQUID LYSINE and Coran were applied using a Birchmeier backpack sprayer with a 5 foot spray pattern. Each fertilizer treatment was applied in concentrations 3.0 lb N/1000 ft^2 and 6.0 lb N/1000 ft^2. Plot size was 5 ft×60 ft set up as a randomized complete block. Irrigation was applied following application, Plots were rated for turfgrass quality and color (scale of 1-10 where 10=dark green turf 1=dead/brown turf and 6=minimally acceptable turf) and phytotoxicity (% burn) throughout the study period and compared with two untreated plots. […] All data was subject to statistical analysis and significant means were determined.

[1] = system: rhizomatous tall fescue grass; assay: Turfgrass quality and color ratings, rhizomatous tall fescue (Example 14); conditions: scale of 1-10
Experimental: In this Example, the effect of a fertilizer comprising lysine on turfgrass growth was examined. The effects of lysine (HCl) and LIQUID LYSINE on a common type of lawn quality turfgrass (rhizomatous tall fescue) were compared with those of CoRoN® brand fertilizer.
Six fertilizer treatments comprising two concentrations of each fertilizer composition (Coron® (N—P—K, 14-2-34), LIQUID LYSINE (N—P—K, 10-2-1), and lysine (HCl) (N—P—K, 15-2-1)) were prepared and applied to 3 replications of rhizomatous tall fescue grass. The solutions of lysine (HCl) (dissolved in 0.5 gal water), LIQUID LYSINE and Coran were applied using a Birchmeier backpack sprayer with a 5 foot spray pattern, Each fertilizer treatment was applied in either a 3-split application with an application rate of 2 lb N/1000 ft^2 or a 6-split application with an application rate of 1 lb N/1000 ft^2. Plot size was 9 ft×9 ft set up as a randomized complete block. Irrigation was applied following application. Plots were rated for turfgrass quality and color (scale of 1-10 where 10=dark green turf, 1 =dead/brown turf, and 6=minimally acceptable turf and phytotoxicity (% burn) throughout the study period and compared with two untreated plots. Quality, color, and phytotoxicity were measured on day 7, day 14, day 21, day 28, day 35, and day 42 after application. All data was subject to statistical analysis and significant means were determined. Average turfgrass quality ratings for the treatments are presented in Table 21. Average turfgrass color ratings are presented in Table 22. Average phytotoxicity ratings (as % burn) are presented in Table 23.

[2] = system: green height, creeping bentgrass; assay: Color rating of green height creeping bentgrass after fertilization (Example 4); conditions: about two weeks after application
Experimental: In this Example, the efficacy of fertilizers on green height, creeping bentgrass was examined. Fertilizer compositions according to several embodiments of the present disclosure were prepared and compared to the commercial fertilizer products, urea 46-0-0 (granular) fertilizer, Lebanon fertilizer 21-0-12 (granular, commercially available from Lebanon Seaboard Corporation, Lebanon, Pa.) and Milorganite 6-2-0 (granular, commercially available from Milorganite, Milwaukee, Wis.). The fertilizer compositions were applied to the turf grass prior to winter dormancy of the turf at a rate equivalent to supplying about 1.0 pounds of nitrogen (N) per 1000 square feet. Each of the fertilizer compositions were applied at substantially equal rates of pounds (lbs) of nitrogen (N) per 1000 square feet. Table 1 illustrates the response of green height (i.e., the height of grass on golf course green), creeping bentgrass to fertilization using various exemplary fertilizers of the present invention, taken about two weeks after application of the fertilizer. The letters in the Color and Injury columns correspond to Duncan's Multiple Range Test. Numbers (means) in a column followed by the same letter are not statistically different at P=0.05.

[3] = system: lawn height, Kentucky bluegrass; assay: Color rating of lawn height Kentucky bluegrass after fertilization (Example 5); conditions: about two weeks after application
Experimental: In this Example, the efficacy of fertilizers on lawn height, Kentucky bluegrass was examined. Fertilizer compositions according to several embodiments of the present disclosure were prepared and compared to the commercial fertilizer products, urea 46-0-0 (granular) fertilizer, Lebanon fertilizer 21-0-12 (granular, commercially available from Lebanon Seaboard Corporation, Lebanon, Pa.) and Milorganite 6-2-0 (granular, commercially available from Milorganite, Milwaukee, Wis.). The fertilizer compositions were applied to the turf grass prior to winter dormancy at a rate equivalent to supplying about 1.0 pounds of nitrogen (N) per 1000 square feet. Each of the fertilizer compositions were applied at substantially equal rates of lbs of nitrogen (N) per 1000 square feet. Table 2 illustrates the response of lawn height, Kentucky bluegrass to fertilization using various exemplary fertilizers of the present invention, taken about two weeks after application of the fertilizer. The letters in the Color and Injury columns correspond to Duncan's Multiple Range Test.

[4] = 3-split, 2.0 lb N/1000 ft^2, Day 7
[5] = 3-split, 2.0 lb N/1000 ft^2, Day 14
[6] = 3-split, 2.0 lb N/1000 ft^2, Day 21
[7] = 3-split, 2.0 lb N/1000 ft^2, Day 28
[8] = 3-split, 2.0 lb N/1000 ft^2, Day 35
[9] = 6-split, 1.0 lb N/1000 ft^2, Day 7
[10] = 6-split, 1.0 lb N/1000 ft^2, Day 14
[11] = 6-split, 1.0 lb N/1000 ft^2, Day 21
[12] = 6-split, 1.0 lb N/1000 ft^2, Day 28
[13] = 6-split, 1.0 lb N/1000 ft^2, Day 35
[14] = 1.09 Lbs. product/1000 square feet
[15] = 2.17 Lbs. product/1000 square feet
[16] = 6.51 Lbs. product/1000 square feet

SMILES: Cl.NCCCC[C@H](N)C(=O)O [Lys (HCl) 15% N, L-lysine monohydrochloride]
- Phytotoxicity (% Burn) - Bermuda grass (Bermuda grass; 3.0 lb N/1000 ft^2, Day 7): 11.7bc %
- Phytotoxicity (% Burn) - Bermuda grass (Bermuda grass; 3.0 lb N/1000 ft^2, Day 12): 6.7b %
- Phytotoxicity (% Burn) - Bermuda grass (Bermuda grass; 3.0 lb N/1000 ft^2, Day 19): 1.7bc %
- Phytotoxicity (% Burn) - Bermuda grass (Bermuda grass; 3.0 lb N/1000 ft^2, Day 26): 0.0b %
- Phytotoxicity (% Burn) - Bermuda grass (Bermuda grass; 3.0 lb N/1000 ft^2, Day 33): 0.0a %
- Phytotoxicity (% Burn) - Bermuda grass (Bermuda grass; 3.0 lb N/1000 ft^2, Day 40): 0.0c %
- Phytotoxicity (% Burn) - Bermuda grass (Bermuda grass; 3.0 lb N/1000 ft^2, Day 47): 0.0c %
- Phytotoxicity (% Burn) - Bermuda grass (Bermuda grass; 6.0 lb N/1000 ft^2, Day 7): 21.7a %
- Phytotoxicity (% Burn) - Bermuda grass (Bermuda grass; 6.0 lb N/1000 ft^2, Day 12): 11.7a %
- Phytotoxicity (% Burn) - Bermuda grass (Bermuda grass; 6.0 lb N/1000 ft^2, Day 19): 5.0b %
- Phytotoxicity (% Burn) - Bermuda grass (Bermuda grass; 6.0 lb N/1000 ft^2, Day 26): 0.0b %
- Phytotoxicity (% Burn) - Bermuda grass (Bermuda grass; 6.0 lb N/1000 ft^2, Day 33): 0.0a %
- Phytotoxicity (% Burn) - Bermuda grass (Bermuda grass; 6.0 lb N/1000 ft^2, Day 40): 0.0c %
- Phytotoxicity (% Burn) - Bermuda grass (Bermuda grass; 6.0 lb N/1000 ft^2, Day 47): 0.0c %
- Color Ratings - Tall fescue grass [1, 4]: 5.0 days
- Quality Ratings - Tall fescue grass [1, 4]: 5.7c
- Color Ratings - Tall fescue grass [1, 5]: 6.0b
- Quality Ratings - Tall fescue grass [1, 5]: 7.0b
- Color Ratings - Tall fescue grass [1, 6]: 7.0bc
- Quality Ratings - Tall fescue grass [1, 6]: 7.0b
- Color Ratings - Tall fescue grass [1, 7]: 8.0a
- Quality Ratings - Tall fescue grass [1, 7]: 8.0a
- Color Ratings - Tall fescue grass [1, 8]: 8.0a
- Quality Ratings - Tall fescue grass [1, 8]: 8.0a
- Color Ratings - Tall fescue grass [1, 9]: 6.0c
- Quality Ratings - Tall fescue grass [1, 9]: 6.0c
- Color Ratings - Tall fescue grass [1, 10]: 7.0a
- Quality Ratings - Tall fescue grass [1, 10]: 7.0b
- Color Ratings - Tall fescue grass [1, 11]: 7.0bc
- Quality Ratings - Tall fescue grass [1, 11]: 7.7a
- Color Ratings - Tall fescue grass [1, 12]: 8.0a
- Quality Ratings - Tall fescue grass [1, 12]: 8.0a
- Color Ratings - Tall fescue grass [1, 13]: 8.0a
- Quality Ratings - Tall fescue grass [1, 13]: 8.0a

SMILES: NC(N)=O [Urea, urea, reference compound]
- Color 1-9 (9 = dark green) [2, 14]: 6.7^a,b,c
- Color 1-9 (9 = dark green) [2, 15]: 6.7^a,b,c
- Color 1-9 (9 = dark green) [2, 16]: 6.0^d,c
- Color 1-9 (9 = dark green) [3, 14]: 7.0
- Color 1-9 (9 = dark green) [3, 15]: 7.3
- Color 1-9 (9 = dark green) [3, 16]: 7.7
